Measurements reported in the NIST ThermoML archive (doi:10.1016/j.jct.2017.06.001).

Assay: xn = mol fraction of the nth substance listed
Conditions: 100 kPa, Liquid; for speed of sound: Frequency=5 MHz, Pulse-echo method; for mass density: Vibrating tube method

OCCCCCO [1,5-pentanediol] + O
Conditions	mass density [kg/m3]	speed of sound [m/s]
303.15 K, x1 = 0.005	995.24	–
303.15 K, x1 = 0.0101	995.18	–
303.15 K, x1 = 0.0196	995.46	–
303.15 K, x1 = 0.0251	995.87	–
303.15 K, x1 = 0.0304	996.33	–
303.15 K, x1 = 0.05	997.59	–
303.15 K, x1 = 0.0769	998.6	–
303.15 K, x1 = 0.1002	999.37	–
303.15 K, x1 = 0.1172	–	1668.9
303.15 K, x1 = 0.1188	–	1669.4
303.15 K, x1 = 0.1225	–	1670.4
303.15 K, x1 = 0.1232	–	1670.5
303.15 K, x1 = 0.127	–	1671.5
303.15 K, x1 = 0.1286	–	1671.8
303.15 K, x1 = 0.1312	–	1672.4
303.15 K, x1 = 0.1344	–	1673
303.15 K, x1 = 0.135	–	1673.1
303.15 K, x1 = 0.1389	–	1673.8
303.15 K, x1 = 0.1394	–	1673.8
303.15 K, x1 = 0.1438	999.75	–
303.15 K, x1 = 0.1443	–	1674.5
303.15 K, x1 = 0.1445	–	1674.6
303.15 K, x1 = 0.1496	–	1675.2
303.15 K, x1 = 0.1507	–	1675.3
303.15 K, x1 = 0.1548	–	1675.7
303.15 K, x1 = 0.1571	–	1675.9
303.15 K, x1 = 0.1598	–	1676.1
303.15 K, x1 = 0.163	–	1676.3
303.15 K, x1 = 0.1658	–	1676.5
303.15 K, x1 = 0.1708	–	1676.7
303.15 K, x1 = 0.1802	–	1676.9
303.15 K, x1 = 0.1845	999.44	–
303.15 K, x1 = 0.1897	–	1677
303.15 K, x1 = 0.1979	–	1676.8
303.15 K, x1 = 0.2069	–	1676.6
303.15 K, x1 = 0.2148	–	1676.3
303.15 K, x1 = 0.2235	–	1675.9
303.15 K, x1 = 0.2319	–	1675.5
303.15 K, x1 = 0.2409	–	1674.9
303.15 K, x1 = 0.2503	998.42	–
303.15 K, x1 = 0.2504	–	1674.3
303.15 K, x1 = 0.2626	–	1673.4
303.15 K, x1 = 0.2732	–	1672.6
303.15 K, x1 = 0.2834	–	1671.8
303.15 K, x1 = 0.2953	–	1670.8
303.15 K, x1 = 0.3	997.34	–
303.15 K, x1 = 0.3083	–	1669.6
303.15 K, x1 = 0.3214	–	1668.4
303.15 K, x1 = 0.3343	996.61	–
303.15 K, x1 = 0.3389	–	1666.8
303.15 K, x1 = 0.3516	–	1665.5
303.15 K, x1 = 0.3648	–	1664.2
303.15 K, x1 = 0.3773	–	1662.8
303.15 K, x1 = 0.3937	–	1661.1
303.15 K, x1 = 0.4071	–	1659.6
303.15 K, x1 = 0.4171	994.93	–
303.15 K, x1 = 0.4199	–	1658.1
303.15 K, x1 = 0.4346	–	1656.3
303.15 K, x1 = 0.447	–	1654.8
303.15 K, x1 = 0.454	994.03	–
303.15 K, x1 = 0.4637	–	1652.8
303.15 K, x1 = 0.4812	–	1650.5
303.15 K, x1 = 0.4955	–	1648.6
303.15 K, x1 = 0.5003	993	–
303.15 K, x1 = 0.5124	–	1646.4
303.15 K, x1 = 0.5315	–	1643.8
303.15 K, x1 = 0.5362	992.2	–
303.15 K, x1 = 0.5497	–	1641.2
303.15 K, x1 = 0.5687	–	1638.5
303.15 K, x1 = 0.5883	–	1635.7
303.15 K, x1 = 0.6098	–	1632.7
303.15 K, x1 = 0.6177	990.7	–
303.15 K, x1 = 0.63	–	1629.8
303.15 K, x1 = 0.6445	–	1627.7
303.15 K, x1 = 0.6478	990.1	–
303.15 K, x1 = 0.6622	–	1625.2
303.15 K, x1 = 0.6847	–	1622
303.15 K, x1 = 0.7025	989.2	–
303.15 K, x1 = 0.7039	–	1619.3
303.15 K, x1 = 0.7252	–	1616.4
303.15 K, x1 = 0.7448	–	1613.7
303.15 K, x1 = 0.7504	988.4	–
303.15 K, x1 = 0.7674	–	1610.7
303.15 K, x1 = 0.7881	–	1608.1
303.15 K, x1 = 0.7927	987.6	–
303.15 K, x1 = 0.8098	–	1605.3
303.15 K, x1 = 0.8318	–	1602.6
303.15 K, x1 = 0.8478	–	1600.6
303.15 K, x1 = 0.8605	986.4	–
303.15 K, x1 = 0.8678	–	1598.2
303.15 K, x1 = 0.8839	–	1596.3
303.15 K, x1 = 0.9004	985.7	–
303.15 K, x1 = 0.9005	–	1594.4
303.15 K, x1 = 0.9185	–	1592.2
303.15 K, x1 = 0.9359	–	1590.2
303.15 K, x1 = 0.9494	–	1588.6
303.15 K, x1 = 0.9496	984.6	–
303.15 K, x1 = 0.9623	–	1587.1
303.15 K, x1 = 0.9723	–	1585.9
303.15 K, x1 = 0.9822	–	1584.7
303.15 K, x1 = 0.9892	–	1583.9
303.15 K, x1 = 0.9947	–	1583.2
303.15 K, x1 = 0.9972	–	1582.9
303.15 K, x1 = 1	983.6	1582.5
308.15 K, x1 = 0.0001	–	1519.6
308.15 K, x1 = 0.0003	–	1520.1
308.15 K, x1 = 0.0005	–	1520.7
308.15 K, x1 = 0.0007	–	1521.5
308.15 K, x1 = 0.001	–	1522.4
308.15 K, x1 = 0.0014	–	1523.4
308.15 K, x1 = 0.0018	–	1524.7
308.15 K, x1 = 0.0023	–	1526.2
308.15 K, x1 = 0.0028	–	1527.9
308.15 K, x1 = 0.0034	–	1529.7
308.15 K, x1 = 0.004	–	1531.4
308.15 K, x1 = 0.0047	–	1533.5
308.15 K, x1 = 0.0055	–	1535.7
308.15 K, x1 = 0.0064	–	1538.1
308.15 K, x1 = 0.0073	–	1540.8
308.15 K, x1 = 0.0083	–	1543.6
308.15 K, x1 = 0.0094	–	1546.5
308.15 K, x1 = 0.0105	–	1549.3
308.15 K, x1 = 0.0116	–	1552.2
308.15 K, x1 = 0.0129	–	1555.4
308.15 K, x1 = 0.0141	–	1558.3
308.15 K, x1 = 0.0154	–	1561.5
308.15 K, x1 = 0.0167	–	1564.5
308.15 K, x1 = 0.0181	–	1567.6
308.15 K, x1 = 0.0195	–	1570.7
308.15 K, x1 = 0.0211	–	1574.1
308.15 K, x1 = 0.0225	–	1577
308.15 K, x1 = 0.0238	–	1579.8
308.15 K, x1 = 0.0252	–	1582.6
308.15 K, x1 = 0.0268	–	1585.5
308.15 K, x1 = 0.0283	–	1588.5
308.15 K, x1 = 0.0298	–	1591.2
308.15 K, x1 = 0.0316	–	1594.3
308.15 K, x1 = 0.0336	–	1597.7
308.15 K, x1 = 0.0351	–	1600.2
308.15 K, x1 = 0.0367	–	1602.6
308.15 K, x1 = 0.0384	–	1605.2
308.15 K, x1 = 0.0403	–	1608.1
308.15 K, x1 = 0.0417	–	1610
308.15 K, x1 = 0.0436	–	1612.7
308.15 K, x1 = 0.0459	–	1615.8
308.15 K, x1 = 0.0481	–	1618.5
308.15 K, x1 = 0.0505	–	1621.5
308.15 K, x1 = 0.0528	–	1624
308.15 K, x1 = 0.0551	–	1626.6
308.15 K, x1 = 0.0574	–	1629
308.15 K, x1 = 0.0594	–	1631
308.15 K, x1 = 0.062	–	1633.4
308.15 K, x1 = 0.0648	–	1635.9
308.15 K, x1 = 0.0671	–	1637.9
308.15 K, x1 = 0.0706	–	1640.7
308.15 K, x1 = 0.073	–	1642.4
308.15 K, x1 = 0.0758	–	1644.4
